Measurements taken from ChEMBL document CHEMBL3044608, “Synthesis and fungicidal activity of hydrazones containing 4-methylbenzo[d]thiazole moiety” (2012).

Legend:
Type in all cases: functional
Rhizoctonia solani [1] = test: microbe, parasite or virus in culture; conditions: read-out: GI
Description: Fungicidal activity against Rhizoctonia solani assessed as inhibition rate of circle mycelium growth at 500 ug/ml

Ustilaginoidea = test: microbe, parasite or virus in culture; conditions: read-out: GI
Description: Fungicidal activity against Ustilaginoidea oryzae assessed as inhibition rate of circle mycelium growth at 500 ug/ml

Alternaria alternata = test: microbe, parasite or virus in culture; conditions: read-out: GI
Description: Fungicidal activity against Alternaria alternata assessed as inhibition rate of circle mycelium growth at 500 ug/ml

Phytophthora capsici = test: microbe, parasite or virus in culture; conditions: read-out: GI
Description: Fungicidal activity against Phytophthora capsici assessed as inhibition rate of circle mycelium growth at 500 ug/ml

Fusarium graminearum = test: microbe, parasite or virus in culture; conditions: read-out: GI
Botrytis cinerea = test: microbe, parasite or virus in culture; conditions: read-out: GI
Description: Fungicidal activity against Botryotinia fuckeliana assessed as inhibition rate of circle mycelium growth at 500 ug/ml

Sclerotinia sclerotiorum = test: microbe, parasite or virus in culture; conditions: read-out: GI
Description: Fungicidal activity against Sclerotinia sclerotiorum assessed as inhibition rate of circle mycelium growth at 500 ug/ml

Rhizoctonia solani [2] = conditions: at 100 µg/mL
Description: Fungicidal activity against Rhizoctonia solani assessed as inhibition rate of circle mycelium growth at 100 ug/ml relative to control

Rhizoctonia solani [3] = conditions: at 200 µg/mL
Description: Fungicidal activity against Rhizoctonia solani assessed as inhibition rate of circle mycelium growth at 200 ug/ml relative to control

Rhizoctonia solani [4] = conditions: at 400 µg/mL
Description: Fungicidal activity against Rhizoctonia solani assessed as inhibition rate of circle mycelium growth at 400 ug/ml relative to control

| Structure (SMILES) | inhibition of growth at 500 µg/mL (Rhizoctonia solani [1]) | inhibition of growth at 500 µg/mL (Ustilaginoidea) | inhibition of growth at 500 µg/mL (Alternaria alternata) | inhibition of growth at 500 µg/mL (Phytophthora capsici) | inhibition of growth at 500 µg/mL (Fusarium graminearum) | inhibition of growth at 500 µg/mL (Botrytis cinerea) | inhibition of growth at 500 µg/mL (Sclerotinia sclerotiorum) | Efficacy (Rhizoctonia solani [2]) | Efficacy (Rhizoctonia solani [3]) | Efficacy (Rhizoctonia solani [4]) |
| --- | --- | --- | --- | --- | --- | --- | --- | --- | --- | --- |
| C/C(=N\Nc1nc2c(C)cccc2s1)c1ccc(Cl)cc1 | 0% | 0% | 0% | 0% | 0% | 0% | 9.4% |  |  |  |
| C/C(=N\Nc1nc2c(C)cccc2s1)C(C)C | 60% | 5% | 56.5% | 0% | 0% | 70.8% | 90.6% |  |  |  |
| Cc1cccc2sc(NN=C3CCCC3)nc12 | 85% | 25% | 52.2% | 0% | 36.8% | 70.8% | 62.5% |  |  |  |
| CC/C(C)=N/Nc1nc2c(C)cccc2s1 | 90% | 40% | 47.8% | 0% | 0% | 70.8% | 87.5% |  |  |  |
| C/C(=N\Nc1nc2c(C)cccc2s1)c1ccc(Br)cc1 | 50% | 0% | 0% | 0% | 0% | 0% | 46.9% |  |  |  |
| C/C(=N\Nc1nc2c(C)cccc2s1)c1ccc([N+](=O)[O-])cc1 | 90% | 0% | 0% | 0% | 0% | 0% | 0% |  |  |  |
| COc1ccccc1/C(C)=N/Nc1nc2c(C)cccc2s1 | 60% | 0% | 0% | 0% | 0% | 0% | 3.1% |  |  |  |
| C/C(=N\Nc1nc2c(C)cccc2s1)c1ccc(F)cc1 | 0% | 0% | 0% | 0% | 0% | 0% | 28.1% |  |  |  |
| CC(C)=NNc1nc2c(C)cccc2s1 | 0% | 20% | 47.8% | 0% | 0% | 70.8% | 59.4% |  |  |  |
| Cc1cccc2sc(NN=C3CCCCC3)nc12 | 0% | 0% | 47.8% | 0% | 0% | 66.7% | 43.8% |  |  |  |
| C/C(=N\Nc1nc2c(C)cccc2s1)c1c(F)cccc1F | 95% | 0% | 0% | 0% | 0% | 0% | 0% | 35% | 45% | 65% |
| Cc1cccc2sc(NN)nc12 | 0% | 0% | 13.6% | 0% | 0% | 22.3% | 16.2% |  |  |  |
| CCCC1COC(Cn2cncn2)(c2ccc(Cl)cc2Cl)O1 (stereo not drawn) [PROPICONAZOLE] | 90% | 0% | 0% | 0% | 0% | 0% | 87.5% | 40% | 60% | 90% |
| Cc1cccc2sc3nncn3c12 [TRICYCLAZOLE] | 85% | 0% | 0% | 27.8% | 13.6% | 52.8% | 72.7% | 22% | 33% | 57% |
| COc1ccc(/C(C)=N/Nc2nc3c(C)cccc3s2)cc1 | 95% | 0% | 30.4% | 0% | 0% | 37.5% | 50% | 10% | 20% | 50% |
| C/C(=N\Nc1nc2c(C)cccc2s1)c1ccc(C)cc1 | 30% | 5% | 0% | 0% | 0% | 0% | 28.1% |  |  |  |
| C/C(=N\Nc1nc2c(C)cccc2s1)c1cccc(Cl)c1 | 0% | 0% | 0% | 0% | 0% | 0% | 43.8% |  |  |  |
| C/C(=N\Nc1nc2c(C)cccc2s1)c1ccccc1 | 0% | 0% | 21.7% | 0% | 0% | 0% | 31.3% |  |  |  |
